Experimental data from ChEMBL document CHEMBL4425158, “Synthesis, structure-activity relationships and biological evaluation of 4,5,6,7-tetrahydropyrazolopyrazines as metabotropic glutamate receptor 5 negative allosteric modulators” (Bioorg Med Chem Lett, 2016).
≈ marks a conversion by molar mass, not a printed value. Calls of active or inactive are those of the source. The calls are words filed in the database; no cut-off is given here.

Assays:
[1] = Aqueous solubility of the compound at pH 1.2; format: physicochemical
[2] = AUC(0 to infinity) in rat plasma at 1 mg/kg, iv after 5 mins to 24 hrs; format: ADME, organism-based; set-up: dose 1 mg/kg, route intravenous, time infinity
[3] = Protein binding in ICR mouse brain at 30 mg/kg, po after 1 hr by LC/MS/MS analysis; format: ADME, organism-based; settings: read-out: PB (converted)
[4] = target: T1, Nuclear receptor subfamily 1 group I member 2 (Homo sapiens, UniProt O75469); test: Induction of human PXR assessed as CYP450 activation; format: ADME
T1 sequence (O75469 whole entry): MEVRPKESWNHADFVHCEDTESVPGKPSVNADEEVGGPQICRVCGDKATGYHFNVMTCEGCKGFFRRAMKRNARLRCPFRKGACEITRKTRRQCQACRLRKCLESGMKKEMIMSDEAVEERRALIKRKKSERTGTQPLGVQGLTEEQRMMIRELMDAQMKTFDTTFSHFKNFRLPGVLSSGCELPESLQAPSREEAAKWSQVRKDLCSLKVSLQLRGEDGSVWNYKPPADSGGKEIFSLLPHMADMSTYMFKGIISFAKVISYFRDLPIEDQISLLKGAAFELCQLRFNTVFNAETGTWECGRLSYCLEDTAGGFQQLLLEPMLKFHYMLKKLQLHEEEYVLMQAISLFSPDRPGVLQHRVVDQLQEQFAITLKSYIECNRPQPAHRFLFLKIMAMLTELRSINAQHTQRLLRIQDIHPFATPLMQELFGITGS

[5] = target: Cytochrome P450 2C19 (Homo sapiens, UniProt P33261); test: Inhibition of CYP2C19 in human liver microsomes using (S)-mephenytoin as substrate after 10 mins in presence of NADPH by LC/MS/MS analysis; format: ADME
Chain of Cytochrome P450 2C19 (P33261 whole entry): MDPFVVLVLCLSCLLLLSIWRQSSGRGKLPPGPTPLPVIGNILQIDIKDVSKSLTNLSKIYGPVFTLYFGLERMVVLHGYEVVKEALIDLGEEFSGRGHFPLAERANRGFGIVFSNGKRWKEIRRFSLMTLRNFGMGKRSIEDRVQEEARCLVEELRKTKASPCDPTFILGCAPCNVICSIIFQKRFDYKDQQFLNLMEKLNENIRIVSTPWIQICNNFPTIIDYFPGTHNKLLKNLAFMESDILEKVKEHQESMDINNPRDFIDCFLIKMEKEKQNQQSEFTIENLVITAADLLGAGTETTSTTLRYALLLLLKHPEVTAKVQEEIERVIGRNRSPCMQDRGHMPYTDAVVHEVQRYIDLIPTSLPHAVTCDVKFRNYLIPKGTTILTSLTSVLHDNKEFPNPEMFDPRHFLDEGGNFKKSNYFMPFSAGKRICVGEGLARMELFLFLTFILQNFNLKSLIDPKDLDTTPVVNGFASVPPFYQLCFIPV

[6] = Ratio of drug level in brain to plasma in ICR mouse at 30 mg/kg, po after 1 hr by LC/MS/MS analysis; format: ADME, organism-based; settings: read-out: BPR
[7] = Aqueous solubility of the compound at pH 7.4; format: physicochemical
[8] = AUC(0 to infinity) in rat plasma at 10 mg/kg, po after 15 mins to 24 hrs; format: ADME, organism-based; set-up: dose 10 mg/kg, route oral, time infinity
[9] = target: Cytochrome P450 2C9 (Homo sapiens, UniProt P11712); test: Inhibition of CYP2C9 in human liver microsomes using diclofenac as substrate after 10 mins in presence of NADPH by LC/MS/MS analysis; format: ADME
Chain of Cytochrome P450 2C9 (P11712 whole entry): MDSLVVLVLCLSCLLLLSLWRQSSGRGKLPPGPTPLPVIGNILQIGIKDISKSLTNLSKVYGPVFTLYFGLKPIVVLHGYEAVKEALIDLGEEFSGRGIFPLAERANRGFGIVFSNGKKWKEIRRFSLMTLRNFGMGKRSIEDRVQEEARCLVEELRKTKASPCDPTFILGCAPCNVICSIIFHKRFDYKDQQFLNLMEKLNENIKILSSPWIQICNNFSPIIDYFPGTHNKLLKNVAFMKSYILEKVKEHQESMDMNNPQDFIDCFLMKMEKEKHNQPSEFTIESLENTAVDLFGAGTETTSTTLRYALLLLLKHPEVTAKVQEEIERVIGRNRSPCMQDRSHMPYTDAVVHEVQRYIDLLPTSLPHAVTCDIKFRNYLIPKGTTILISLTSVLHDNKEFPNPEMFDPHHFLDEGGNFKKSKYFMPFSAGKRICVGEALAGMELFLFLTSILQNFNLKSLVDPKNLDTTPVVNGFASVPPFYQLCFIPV

[10] = target: Cytochrome P450 3A4 (Homo sapiens, UniProt P08684); test: Inhibition of CYP3A4 in human liver microsomes using midazolam as substrate after 10 mins in presence of NADPH by LC/MS/MS analysis; format: ADME
Chain of Cytochrome P450 3A4 (P08684 whole entry): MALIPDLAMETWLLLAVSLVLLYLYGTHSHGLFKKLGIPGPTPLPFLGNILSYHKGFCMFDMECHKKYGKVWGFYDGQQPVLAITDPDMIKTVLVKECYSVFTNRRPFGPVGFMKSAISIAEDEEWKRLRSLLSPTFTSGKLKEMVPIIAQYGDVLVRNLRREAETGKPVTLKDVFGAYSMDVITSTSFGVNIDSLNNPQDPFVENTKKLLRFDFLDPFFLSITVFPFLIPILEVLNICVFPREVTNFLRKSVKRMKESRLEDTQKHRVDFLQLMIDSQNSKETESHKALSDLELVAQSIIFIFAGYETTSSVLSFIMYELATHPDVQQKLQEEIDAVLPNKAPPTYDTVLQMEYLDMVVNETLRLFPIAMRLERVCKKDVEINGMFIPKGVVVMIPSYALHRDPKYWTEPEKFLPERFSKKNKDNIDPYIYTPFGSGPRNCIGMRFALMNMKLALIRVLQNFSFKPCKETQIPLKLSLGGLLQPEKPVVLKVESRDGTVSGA

[11] = target: Cytochrome P450 2D6 (Homo sapiens, UniProt P10635); test: Inhibition of CYP2D6 in human liver microsomes using bufuralol as substrate after 10 mins in presence of NADPH by LC/MS/MS analysis; format: ADME
Chain of Cytochrome P450 2D6 (P10635 whole entry): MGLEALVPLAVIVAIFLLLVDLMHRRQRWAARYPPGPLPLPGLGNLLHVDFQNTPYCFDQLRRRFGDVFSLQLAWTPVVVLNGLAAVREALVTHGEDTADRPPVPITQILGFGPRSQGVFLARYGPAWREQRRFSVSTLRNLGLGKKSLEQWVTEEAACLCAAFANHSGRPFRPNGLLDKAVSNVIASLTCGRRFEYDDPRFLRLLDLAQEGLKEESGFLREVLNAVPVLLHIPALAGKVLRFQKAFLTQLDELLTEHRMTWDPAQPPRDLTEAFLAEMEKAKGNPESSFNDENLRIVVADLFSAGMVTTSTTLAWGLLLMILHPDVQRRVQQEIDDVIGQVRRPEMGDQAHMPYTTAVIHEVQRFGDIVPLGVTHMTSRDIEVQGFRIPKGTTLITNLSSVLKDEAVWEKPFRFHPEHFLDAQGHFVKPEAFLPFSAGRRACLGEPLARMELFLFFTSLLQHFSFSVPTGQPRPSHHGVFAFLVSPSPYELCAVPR

[12] = Plasma concentration in ICR mouse at 30 mg/kg, po after 1 hr by LC/MS/MS analysis; format: ADME, organism-based
[13] = target: T2, Aryl hydrocarbon receptor (Homo sapiens, UniProt P35869); test: Induction of human AhR assessed as CYP450 activation; format: ADME
T2 sequence (P35869 whole entry): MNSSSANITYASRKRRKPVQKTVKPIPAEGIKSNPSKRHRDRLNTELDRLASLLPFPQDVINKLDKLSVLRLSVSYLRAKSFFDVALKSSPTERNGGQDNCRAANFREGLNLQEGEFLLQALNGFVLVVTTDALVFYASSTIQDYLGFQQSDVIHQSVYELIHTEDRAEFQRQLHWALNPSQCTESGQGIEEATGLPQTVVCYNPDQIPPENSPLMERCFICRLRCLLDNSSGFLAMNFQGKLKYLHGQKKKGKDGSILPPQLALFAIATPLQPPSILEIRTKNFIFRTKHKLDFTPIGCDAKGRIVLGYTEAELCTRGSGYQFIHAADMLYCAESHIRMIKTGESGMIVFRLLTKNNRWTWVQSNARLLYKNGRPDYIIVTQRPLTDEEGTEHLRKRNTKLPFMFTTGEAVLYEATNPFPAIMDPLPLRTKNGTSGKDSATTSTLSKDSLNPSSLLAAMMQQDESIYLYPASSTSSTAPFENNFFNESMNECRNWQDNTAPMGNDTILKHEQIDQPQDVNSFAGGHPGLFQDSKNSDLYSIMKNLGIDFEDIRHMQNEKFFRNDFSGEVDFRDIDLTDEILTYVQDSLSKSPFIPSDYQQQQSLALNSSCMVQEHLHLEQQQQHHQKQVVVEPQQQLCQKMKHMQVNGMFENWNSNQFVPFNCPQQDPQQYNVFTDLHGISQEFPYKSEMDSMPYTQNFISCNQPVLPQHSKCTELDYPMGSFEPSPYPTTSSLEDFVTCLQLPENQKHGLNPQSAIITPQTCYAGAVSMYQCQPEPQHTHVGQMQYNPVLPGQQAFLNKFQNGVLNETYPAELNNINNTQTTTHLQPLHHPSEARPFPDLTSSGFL

[14] = Half life in rat plasma at 1 mg/kg, iv after 5 mins to 24 hrs; format: ADME, organism-based
[15] = target: T3, Cytochrome P450 2A6 (Homo sapiens, UniProt P11509); test: Inhibition of CYP2A6 in human liver microsomes using coumarin as substrate after 10 mins in presence of NADPH by LC/MS/MS analysis; format: ADME
T3 sequence (P11509 whole entry): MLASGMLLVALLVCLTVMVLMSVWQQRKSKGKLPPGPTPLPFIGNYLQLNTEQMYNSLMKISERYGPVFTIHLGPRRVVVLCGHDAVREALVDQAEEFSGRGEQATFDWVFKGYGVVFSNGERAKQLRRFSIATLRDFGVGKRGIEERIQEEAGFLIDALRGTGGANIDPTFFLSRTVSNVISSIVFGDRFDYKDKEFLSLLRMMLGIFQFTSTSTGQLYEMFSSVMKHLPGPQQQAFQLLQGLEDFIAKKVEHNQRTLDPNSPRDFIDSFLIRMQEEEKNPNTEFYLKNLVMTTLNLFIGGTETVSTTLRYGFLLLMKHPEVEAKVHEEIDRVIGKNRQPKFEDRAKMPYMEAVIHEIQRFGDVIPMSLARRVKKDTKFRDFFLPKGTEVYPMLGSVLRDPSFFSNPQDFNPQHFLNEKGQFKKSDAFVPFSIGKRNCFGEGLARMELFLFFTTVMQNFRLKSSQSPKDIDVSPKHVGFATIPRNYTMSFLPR

[16] = target: P-gp (ABCB1) (Homo sapiens, UniProt P08183); test: Substrate activity at P-gp (unknown origin) assessed as efflux ratio; format: ADME; settings: not told
Chain of P-gp (ABCB1) (P08183 whole entry): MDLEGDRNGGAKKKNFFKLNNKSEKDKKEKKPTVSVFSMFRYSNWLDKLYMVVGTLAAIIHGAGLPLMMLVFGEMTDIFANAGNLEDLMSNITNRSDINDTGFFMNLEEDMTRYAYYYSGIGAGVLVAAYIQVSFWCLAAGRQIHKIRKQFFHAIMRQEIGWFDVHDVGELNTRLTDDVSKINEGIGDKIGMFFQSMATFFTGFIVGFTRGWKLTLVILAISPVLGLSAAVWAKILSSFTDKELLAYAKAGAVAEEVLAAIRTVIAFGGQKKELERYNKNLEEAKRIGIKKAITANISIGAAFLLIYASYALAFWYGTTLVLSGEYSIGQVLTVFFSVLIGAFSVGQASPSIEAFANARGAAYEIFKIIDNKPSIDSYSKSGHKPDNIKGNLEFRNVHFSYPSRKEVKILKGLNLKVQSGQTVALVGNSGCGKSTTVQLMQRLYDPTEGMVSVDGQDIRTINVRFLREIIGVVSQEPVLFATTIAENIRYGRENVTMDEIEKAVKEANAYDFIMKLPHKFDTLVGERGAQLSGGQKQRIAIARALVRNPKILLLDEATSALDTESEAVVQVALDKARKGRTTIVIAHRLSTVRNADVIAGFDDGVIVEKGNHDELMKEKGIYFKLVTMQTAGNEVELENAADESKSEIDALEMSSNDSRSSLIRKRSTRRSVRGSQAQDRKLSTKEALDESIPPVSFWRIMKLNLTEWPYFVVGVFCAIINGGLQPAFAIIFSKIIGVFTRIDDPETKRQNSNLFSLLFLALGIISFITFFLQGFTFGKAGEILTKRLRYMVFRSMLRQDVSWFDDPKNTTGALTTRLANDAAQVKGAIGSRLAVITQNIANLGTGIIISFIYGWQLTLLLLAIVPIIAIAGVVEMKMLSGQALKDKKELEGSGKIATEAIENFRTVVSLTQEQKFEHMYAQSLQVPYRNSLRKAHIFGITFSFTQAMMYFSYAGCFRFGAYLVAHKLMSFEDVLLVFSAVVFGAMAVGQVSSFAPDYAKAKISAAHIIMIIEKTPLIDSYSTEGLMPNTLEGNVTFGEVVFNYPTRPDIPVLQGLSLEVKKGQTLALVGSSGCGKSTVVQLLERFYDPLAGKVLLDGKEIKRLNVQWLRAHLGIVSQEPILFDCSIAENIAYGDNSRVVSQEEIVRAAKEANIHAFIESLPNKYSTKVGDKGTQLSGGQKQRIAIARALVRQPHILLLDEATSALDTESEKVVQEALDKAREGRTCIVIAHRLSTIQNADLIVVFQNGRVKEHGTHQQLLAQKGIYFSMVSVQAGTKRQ

[17] = target: Metabotropic glutamate receptor 5 (Homo sapiens, UniProt P41594); test: Negative allosteric modulation of human recombinant mGluR5 expressed in HEK293 cells assessed as L-glutamate-induced intracellular calcium mobilization incubated for 20 mins before L-glutamate addition; format: functional, cell-based
Chain of Metabotropic glutamate receptor 5 (P41594 whole entry): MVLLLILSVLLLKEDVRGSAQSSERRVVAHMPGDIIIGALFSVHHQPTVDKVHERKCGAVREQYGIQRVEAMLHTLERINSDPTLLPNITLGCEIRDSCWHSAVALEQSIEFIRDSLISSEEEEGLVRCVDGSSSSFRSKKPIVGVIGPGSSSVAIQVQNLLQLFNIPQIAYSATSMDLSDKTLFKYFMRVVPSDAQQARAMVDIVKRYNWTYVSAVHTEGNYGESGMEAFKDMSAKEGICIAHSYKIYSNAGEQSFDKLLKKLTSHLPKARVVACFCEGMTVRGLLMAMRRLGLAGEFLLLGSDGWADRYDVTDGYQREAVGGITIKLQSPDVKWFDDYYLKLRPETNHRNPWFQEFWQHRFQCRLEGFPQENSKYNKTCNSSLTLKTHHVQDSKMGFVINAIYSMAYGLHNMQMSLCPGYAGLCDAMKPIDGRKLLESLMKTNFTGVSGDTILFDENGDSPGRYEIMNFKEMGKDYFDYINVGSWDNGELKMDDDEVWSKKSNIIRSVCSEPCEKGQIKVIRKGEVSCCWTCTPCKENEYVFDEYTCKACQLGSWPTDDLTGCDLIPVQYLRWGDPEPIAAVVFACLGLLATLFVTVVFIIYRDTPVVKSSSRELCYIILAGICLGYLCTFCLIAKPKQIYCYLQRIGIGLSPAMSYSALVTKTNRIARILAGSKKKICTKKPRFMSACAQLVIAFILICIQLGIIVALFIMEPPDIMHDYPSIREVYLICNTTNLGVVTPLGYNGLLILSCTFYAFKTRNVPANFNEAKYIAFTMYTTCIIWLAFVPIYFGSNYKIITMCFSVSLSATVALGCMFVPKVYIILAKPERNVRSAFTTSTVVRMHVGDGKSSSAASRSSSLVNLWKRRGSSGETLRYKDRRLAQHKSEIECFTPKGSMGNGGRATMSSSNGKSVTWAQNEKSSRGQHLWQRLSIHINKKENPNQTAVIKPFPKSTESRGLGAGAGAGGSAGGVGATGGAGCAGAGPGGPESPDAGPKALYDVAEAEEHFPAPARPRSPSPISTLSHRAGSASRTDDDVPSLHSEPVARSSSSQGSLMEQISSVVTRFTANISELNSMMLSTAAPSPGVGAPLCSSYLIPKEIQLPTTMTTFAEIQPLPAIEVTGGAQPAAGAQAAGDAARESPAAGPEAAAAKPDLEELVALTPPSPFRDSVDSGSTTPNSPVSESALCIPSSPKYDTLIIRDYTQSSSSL

[18] = Oral bioavailability in rat plasma at 10 mg/kg, after 15 mins to 24 hrs; format: ADME, organism-based
[19] = Cmax in rat plasma at 10 mg/kg, po after 15 mins to 24 hrs; format: ADME, organism-based; set-up: dose 10 mg/kg, route oral
[20] = target: Voltage-gated inwardly rectifying potassium channel KCNH2 (Homo sapiens, UniProt Q12809); test: Inhibition of human ERG
[21] = Metabolic stability in rat liver microsomes assessed as compound remaining at 1 uM after 30 mins in presence of NADPH by LC/MS/MS analysis; format: ADME, Microsome; settings: read-out: Stability
[22] = system: Mus musculus; test: Antidepressant activity in CD1(ICR) mouse assessed as decrease in immobility time at 30 mg/kg, po after 1 hr by tail suspension test; format: functional, organism-based
[23] = target: T4, Cytochrome P450 1A2 (Homo sapiens, UniProt P05177); test: Inhibition of CYP1A2 in human liver microsomes using phenacetin as substrate after 10 mins in presence of NADPH by LC/MS/MS analysis; format: ADME
T4 sequence (P05177 whole entry): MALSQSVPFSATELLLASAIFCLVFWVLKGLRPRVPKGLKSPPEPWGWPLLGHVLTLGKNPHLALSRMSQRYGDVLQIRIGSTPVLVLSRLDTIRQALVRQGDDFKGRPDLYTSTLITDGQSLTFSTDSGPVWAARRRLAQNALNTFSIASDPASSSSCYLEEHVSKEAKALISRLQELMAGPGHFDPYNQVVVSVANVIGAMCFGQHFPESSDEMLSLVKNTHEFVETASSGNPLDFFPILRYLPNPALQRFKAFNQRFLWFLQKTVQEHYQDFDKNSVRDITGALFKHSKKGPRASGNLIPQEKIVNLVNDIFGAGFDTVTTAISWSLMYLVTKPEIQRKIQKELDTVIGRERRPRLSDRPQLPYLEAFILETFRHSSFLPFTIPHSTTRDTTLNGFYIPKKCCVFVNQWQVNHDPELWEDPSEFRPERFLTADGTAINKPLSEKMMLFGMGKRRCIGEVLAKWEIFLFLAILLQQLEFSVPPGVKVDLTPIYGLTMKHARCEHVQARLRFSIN

[24] = Volume of distribution in steady state in rat plasma at 1 mg/kg, iv after 5 mins to 24 hrs; format: ADME, organism-based; settings: read-out: Vdss
[25] = Drug uptake in ICR mouse brain at 30 mg/kg, po after 1 hr by LC/MS/MS analysis; format: ADME, organism-based; settings: read-out: Drug uptake
[26] = Unbound drug concentration in ICR mouse brain at 30 mg/kg, po after 1 hr by LC/MS/MS analysis; format: ADME, organism-based; settings: in vivo
[27] = target: T5, Cytochrome P450 2C8 (Homo sapiens, UniProt P10632); test: Inhibition of CYP2C8 in human liver microsomes using amodiaquin as substrate after 10 mins in presence of NADPH by LC/MS/MS analysis; format: ADME
T5 sequence (P10632 whole entry): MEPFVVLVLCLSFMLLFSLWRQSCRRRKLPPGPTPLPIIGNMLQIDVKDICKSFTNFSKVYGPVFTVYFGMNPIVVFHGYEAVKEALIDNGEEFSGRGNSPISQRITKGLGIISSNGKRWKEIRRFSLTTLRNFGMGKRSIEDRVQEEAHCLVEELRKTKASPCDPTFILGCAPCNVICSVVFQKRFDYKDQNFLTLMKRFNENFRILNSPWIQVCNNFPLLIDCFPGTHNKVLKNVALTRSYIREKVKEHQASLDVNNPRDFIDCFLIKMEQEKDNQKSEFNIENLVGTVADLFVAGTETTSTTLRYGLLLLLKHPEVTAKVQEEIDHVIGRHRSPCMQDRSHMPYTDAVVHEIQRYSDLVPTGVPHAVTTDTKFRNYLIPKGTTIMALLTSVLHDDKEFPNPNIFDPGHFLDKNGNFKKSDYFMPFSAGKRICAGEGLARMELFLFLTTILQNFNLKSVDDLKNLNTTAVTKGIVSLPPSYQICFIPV

[28] = Metabolic stability in human liver microsomes assessed as compound remaining at 1 uM after 30 mins in presence of NADPH by LC/MS/MS analysis; format: ADME, Microsome; settings: read-out: Stability
[29] = Permeability of the compound at pH 7.4 by PAMPA; format: ADME; settings: read-out: permeability
[30] = Clearance in rat plasma at 1 mg/kg, iv after 5 mins to 24 hrs; format: ADME, organism-based

## O=C(c1cc(F)cc(Cl)c1)N1CCn2nc(-c3ccc(F)cn3)cc2C1
[1]
  solubility: 79 µg/mL (≈ 211 µM)
[2]
  AUC(0-inf): 7220 ng·h/mL
[3]
  fraction unbound at 1 h: 0.05
[4]
  Activity: Not Active
[5]
  IC50: > 40 µM
[6]
  Kp at 1 h: 1.38
[7]
  solubility: 7 µg/mL (≈ 18.7 µM)
[8]
  AUC(0-inf): 68700 ng·h/mL
[9]
  IC50: > 40 µM
[10]
  IC50: > 40 µM
[11]
  IC50: > 40 µM
[12]
  concentration at 1 h: 21.4 µM
[13]
  Activity: Not Active
[14]
  half-life: 9.2 h
[15]
  IC50: > 40 µM
[16]
  efflux ratio: 1.2
[17]
  IC50: 0.075 µM
[18]
  bioavailability: 95%
[19]
  Cmax: 2930 ng/mL
[20]
  IC50: 15 µM
[21]
  remaining at 0.5 h, 1 µM: > 97%
[22]
  Activity: Active
[23]
  IC50: > 40 µM
[24]
  Vd: 1.5 L/kg
[25]
  concentration at 1 h: 29.5 µM
[26]
  Drug uptake(free): 1.38 µM
[27]
  IC50: > 40 µM
[28]
  remaining at 0.5 h, 1 µM: > 97%
[29]
  Papp: 37 ×10⁻⁶ cm/s
[30]
  clearance: 2.3 mL/min/kg

## Cc1ccnc(-c2cc3n(n2)CCN(C(=O)c2ccccc2)C3)c1
[17]
  IC50: 0.451 µM

## N#Cc1cccc(C(=O)N2CCn3nc(-c4ccc(F)cn4)cc3C2)c1
[17]
  IC50: > 10 µM

## Cc1cccc(-c2cc3n(n2)CCN(C(=O)c2ccccc2)C3)n1
[17]
  IC50: 0.568 µM

## O=C(c1ccccc1)N1CCn2nc(-c3ccccc3)cc2C1
[1]
  solubility: 4 µg/mL (≈ 13.2 µM)
[7]
  solubility: 2 µg/mL (≈ 6.59 µM)
[17]
  IC50: 0.127 µM

## Cc1cc(F)cc(C(=O)N2CCn3nc(-c4ccc(F)cn4)cc3C2)c1
[17]
  IC50: 0.197 µM
